Experimental data as given in PubChem BioAssay AID256 (DTP/NCI, 2004).
“And” between values parts separate entries of the source, which are not always exact repeats. Equal entries are not always repeated. Inconclusive results and toxic doses are left out.

Tested on: CD2F1 mice, L1210 leukemia ip, survival T/C
Experiment: NCI In Vivo Anticancer Drug Screen. Data for tumor model L1210 Leukemia (intraperitoneal) in CD2F1 (CDF1) mice
Conditions: higher = longer survival
In short: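 Mice carrying a transplanted tumor received test compound or vehicle alone. The value is the measurement in the treated group divided by that in the vehicle-treated control group.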

What does the source list for `NC(C/[N+]([O-])=N/O)C(=O)O` (configuration not stated)?
T/C (endpoint: mean survival time, dose: 5.0 mg/kg/injection, schedule: Q01DX009 (ip), vehicle: alkali diluted with saline): 100 % of control; T/C (endpoint: mean survival time, dose: 7.5 mg/kg/injection, schedule: Q01DX005 (ip), vehicle: alkali diluted with saline): 98 % of control; T/C (endpoint: mean survival time, dose: 8.0 mg/kg/injection, schedule: Q03HX008 (ip), vehicle: saline): 111 % of control; T/C (endpoint: mean survival time, dose: 8.0 mg/kg/injection, schedule: Q03HX016 (ip), vehicle: saline): 105 % of control; T/C (endpoint: mean survival time, dose: 8.0 mg/kg/injection, schedule: Q03HX024 (ip), vehicle: saline): 109 % of control; T/C (endpoint: mean survival time, dose: 8.78 mg/kg/injection, schedule: Q01DX010 (ip), vehicle: alkali diluted with saline): 121 % of control; T/C (endpoint: mean survival time, dose: 9.38 mg/kg/injection, schedule: Q01DX009 (ip), vehicle: alkali diluted with saline): 118 % of control; T/C (endpoint: mean survival time, dose: 10.0 mg/kg/injection, schedule: Q01DX009 (ip), vehicle: alkali diluted with saline): 101 % of control; T/C (endpoint: mean survival time, dose: 13.2 mg/kg/injection, schedule: Q01DX010 (ip), vehicle: alkali diluted with saline): 120 % of control; T/C (endpoint: mean survival time, dose: 15.0 mg/kg/injection, schedule: Q01DX005 (ip), vehicle: alkali diluted with saline): 113 % of control; T/C (endpoint: mean survival time, dose: 16.0 mg/kg/injection, schedule: Q01DX009 (sc), vehicle: saline): 97 % of control; T/C (endpoint: mean survival time, dose: 16.0 mg/kg/injection, schedule: Q03HX008 (ip), vehicle: saline): 112 % of control; T/C (endpoint: mean survival time, dose: 16.0 mg/kg/injection, schedule: Q03HX016 (ip), vehicle: saline): 104 % of control; T/C (endpoint: mean survival time, dose: 16.0 mg/kg/injection, schedule: Q03HX024 (ip), vehicle: saline): 112 % of control; T/C (endpoint: mean survival time, dose: 18.75 mg/kg/injection, schedule: Q01DX009 (ip), vehicle: alkali diluted with saline): 119 % of control; T/C (endpoint: mean survival time, dose: 18.8 mg/kg/injection, schedule: Q01DX009 (ip), vehicle: alkali diluted with saline): 102 % of control; T/C (endpoint: mean survival time, dose: 19.8 mg/kg/injection, schedule: Q01DX010 (ip), vehicle: alkali diluted with saline): 121 % of control; T/C (endpoint: mean survival time, dose: 20.0 mg/kg/injection, schedule: Q01DX009 (ip), vehicle: alkali diluted with saline): 105 % of control; T/C (endpoint: mean survival time, dose: 28.12 mg/kg/injection, schedule: Q04DX003 (ip), vehicle: alkali diluted with saline): 103 % of control; T/C (endpoint: mean survival time, dose: 30.0 mg/kg/injection, schedule: Q01DX005 (ip), vehicle: alkali diluted with saline): 122 % of control; T/C (endpoint: mean survival time, dose: 32.0 mg/kg/injection, schedule: Q01DX009 (ip), vehicle: saline): 123 % of control; T/C (endpoint: mean survival time, dose: 32.0 mg/kg/injection, schedule: Q01DX009 (sc), vehicle: saline): 103 % of control; T/C (endpoint: mean survival time, dose: 32.0 mg/kg/injection, schedule: Q03HX008 (ip), vehicle: saline): 108 % of control; T/C (endpoint: mean survival time, dose: 32.0 mg/kg/injection, schedule: Q03HX016 (ip), vehicle: saline): 113 % of control; T/C (endpoint: mean survival time, dose: 37.5 mg/kg/injection, schedule: Q01DX009 (ip), vehicle: alkali diluted with saline): 120 % of control and 124 % of control; T/C (endpoint: mean survival time, dose: 40.0 mg/kg/injection, schedule: Q01DX009 (ip), vehicle: alkali diluted with saline): 120 % of control; T/C (endpoint: mean survival time, dose: 56.25 mg/kg/injection, schedule: Q04DX003 (ip), vehicle: alkali diluted with saline): 116 % of control and 103 % of control; T/C (endpoint: mean survival time, dose: 64.0 mg/kg/injection, schedule: Q01DX001 (ip), vehicle: saline): 111 % of control; T/C (endpoint: mean survival time, dose: 64.0 mg/kg/injection, schedule: Q01DX009 (oral), vehicle: saline): 96 % of control; T/C (endpoint: mean survival time, dose: 64.0 mg/kg/injection, schedule: Q01DX009 (sc), vehicle: saline): 111 % of control; T/C (endpoint: mean survival time, dose: 64.0 mg/kg/injection, schedule: Q03HX008 (ip), vehicle: saline): 116 % of control; T/C (endpoint: mean survival time, dose: 64.0 mg/kg/injection, schedule: Q03HX016 (ip), vehicle: saline): 116 % of control; T/C (endpoint: mean survival time, dose: 64.0 mg/kg/injection, schedule: Q04DX003 (ip), vehicle: saline): 116 % of control; T/C (endpoint: mean survival time, dose: 64.0 mg/kg/injection, schedule: Q04DX003 (oral), vehicle: saline): 98 % of control; T/C (endpoint: mean survival time, dose: 64.0 mg/kg/injection, schedule: Q04DX003 (sc), vehicle: saline): 96 % of control; T/C (endpoint: mean survival time, dose: 64.0 mg/kg/injection, schedule: Q08DX002 (ip), vehicle: saline): 109 % of control; T/C (endpoint: mean survival time, dose: 112.5 mg/kg/injection, schedule: Q04DX003 (ip), vehicle: alkali diluted with saline): 123 % of control; T/C (endpoint: mean survival time, dose: 128.0 mg/kg/injection, schedule: Q01DX001 (ip), vehicle: saline): 113 % of control; T/C (endpoint: mean survival time, dose: 128.0 mg/kg/injection, schedule: Q01DX009 (ip), vehicle: saline): 95 % of control; T/C (endpoint: mean survival time, dose: 128.0 mg/kg/injection, schedule: Q01DX009 (oral), vehicle: saline): 91 % of control; T/C (endpoint: mean survival time, dose: 128.0 mg/kg/injection, schedule: Q01DX009 (sc), vehicle: saline): 104 % of control; T/C (endpoint: mean survival time, dose: 128.0 mg/kg/injection, schedule: Q04DX003 (oral), vehicle: saline): 102 % of control; T/C (endpoint: mean survival time, dose: 128.0 mg/kg/injection, schedule: Q04DX003 (sc), vehicle: saline): 105 % of control; T/C (endpoint: mean survival time, dose: 128.0 mg/kg/injection, schedule: Q08DX002 (ip), vehicle: saline): 112 % of control; T/C (endpoint: mean survival time, dose: 150.0 mg/kg/injection, schedule: Q01DX009 (ip), vehicle: alkali diluted with saline): 102 % of control; T/C (endpoint: mean survival time, dose: 256.0 mg/kg/injection, schedule: Q01DX001 (ip), vehicle: saline): 123 % of control; T/C (endpoint: mean survival time, dose: 256.0 mg/kg/injection, schedule: Q04DX003 (ip), vehicle: saline): 119 % of control; T/C (endpoint: mean survival time, dose: 256.0 mg/kg/injection, schedule: Q04DX003 (oral), vehicle: saline): 116 % of control; T/C (endpoint: mean survival time, dose: 256.0 mg/kg/injection, schedule: Q04DX003 (sc), vehicle: saline): 122 % of control; T/C (endpoint: mean survival time, dose: 512.0 mg/kg/injection, schedule: Q04DX003 (ip), vehicle: saline): 170 % of control; T/C (endpoint: mean survival time, dose: 512.0 mg/kg/injection, schedule: Q04DX003 (sc), vehicle: saline): 155 % of control; T/C (endpoint: mean survival time, dose: 1024.0 mg/kg/injection, schedule: Q04DX003 (ip), vehicle: saline): 90 % of control; T/C (endpoint: mean survival time, dose: 1024.0 mg/kg/injection, schedule: Q04DX003 (oral), vehicle: saline): 119 % of control; T/C (endpoint: mean survival time, dose: 1024.0 mg/kg/injection, schedule: Q04DX003 (sc), vehicle: saline): 89 % of control; T/C (endpoint: mean survival time, dose: 1024.0 mg/kg/injection, schedule: Q08DX002 (ip), vehicle: saline): 118 % of control; T/C (endpoint: median survival time, dose: 0.78 mg/kg/injection, schedule: Q01DX009 (ip), vehicle: water): 100 % of control; T/C (endpoint: median survival time, dose: 0.78 mg/kg/injection, schedule: Q04DX003 (ip), vehicle: water): 100 % of control; T/C (endpoint: median survival time, dose: 1.57 mg/kg/injection, schedule: Q01DX009 (ip), vehicle: water): 95 % of control and 100 % of control; T/C (endpoint: median survival time, dose: 1.57 mg/kg/injection, schedule: Q04DX003 (ip), vehicle: water): 95 % of control; T/C (endpoint: median survival time, dose: 3.13 mg/kg/injection, schedule: Q01DX009 (ip), vehicle: water): 100 % of control; T/C (endpoint: median survival time, dose: 3.13 mg/kg/injection, schedule: Q04DX003 (ip), vehicle: water): 95 % of control and 100 % of control; T/C (endpoint: median survival time, dose: 6.25 mg/kg/injection, schedule: Q01DX009 (ip), vehicle: water): 110 % of control; T/C (endpoint: median survival time, dose: 6.25 mg/kg/injection, schedule: Q04DX003 (ip), vehicle: water): 90 % of control and 95 % of control; T/C (endpoint: median survival time, dose: 12.5 mg/kg/injection, schedule: Q01DX009 (ip), vehicle: water): 105 % of control; T/C (endpoint: median survival time, dose: 12.5 mg/kg/injection, schedule: Q04DX003 (ip), vehicle: water): 90 % of control and 100 % of control; T/C (endpoint: median survival time, dose: 13.0 mg/kg/injection, schedule: Q01DX009 (ip), vehicle: alkali diluted with saline): 120 % of control; T/C (endpoint: median survival time, dose: 16.2 mg/kg/injection, schedule: Q01DX009 (ip), vehicle: alkali diluted with saline): 119 % of control; T/C (endpoint: median survival time, dose: 21.6 mg/kg/injection, schedule: Q01DX009 (ip), vehicle: alkali diluted with saline): 122 % of control; T/C (endpoint: median survival time, dose: 25.0 mg/kg/injection, schedule: Q01DX009 (ip), vehicle: water): 100 % of control; T/C (endpoint: median survival time, dose: 25.0 mg/kg/injection, schedule: Q04DX003 (ip), vehicle: water): 90 % of control and 105 % of control; T/C (endpoint: median survival time, dose: 27.0 mg/kg/injection, schedule: Q01DX009 (ip), vehicle: alkali diluted with saline): 124 % of control; T/C (endpoint: median survival time, dose: 31.3 mg/kg/injection, schedule: Q01DX009 (ip), vehicle: water): 122 % of control; T/C (endpoint: median survival time, dose: 31.3 mg/kg/injection, schedule: Q04DX003 (ip), vehicle: water): 116 % of control; T/C (endpoint: median survival time, dose: 35.0 mg/kg/injection, schedule: Q04DX003 (ip), vehicle: alkali diluted with saline): 120 % of control; T/C (endpoint: median survival time, dose: 36.0 mg/kg/injection, schedule: Q01DX009 (ip), vehicle: alkali diluted with saline): 120 % of control; T/C (endpoint: median survival time, dose: 58.3 mg/kg/injection, schedule: Q04DX003 (ip), vehicle: alkali diluted with saline): 120 % of control; T/C (endpoint: median survival time, dose: 62.5 mg/kg/injection, schedule: Q01DX009 (ip), vehicle: water): 122 % of control; T/C (endpoint: median survival time, dose: 62.5 mg/kg/injection, schedule: Q04DX003 (ip), vehicle: water): 122 % of control; T/C (endpoint: median survival time, dose: 90.0 mg/kg/injection, schedule: Q01DX009 (ip), vehicle: alkali diluted with saline): 158 % of control; T/C (endpoint: median survival time, dose: 125.0 mg/kg/injection, schedule: Q01DX009 (ip), vehicle: alkali diluted with saline): 114 % of control; T/C (endpoint: median survival time, dose: 125.0 mg/kg/injection, schedule: Q01DX009 (ip), vehicle: water): 88 % of control; T/C (endpoint: median survival time, dose: 125.0 mg/kg/injection, schedule: Q04DX003 (ip), vehicle: water): 122 % of control; T/C (endpoint: median survival time, dose: 162.0 mg/kg/injection, schedule: Q04DX003 (ip), vehicle: alkali diluted with saline): 151 % of control; T/C (endpoint: median survival time, dose: 250.0 mg/kg/injection, schedule: Q04DX003 (ip), vehicle: water): 155 % of control and 177 % of control; T/C (endpoint: median survival time, dose: 270.0 mg/kg/injection, schedule: Q04DX003 (ip), vehicle: alkali diluted with saline): 172 % of control; T/C (endpoint: median survival time, dose: 450.0 mg/kg/injection, schedule: Q04DX003 (ip), vehicle: alkali diluted with saline): 189 % of control; T/C (endpoint: median survival time, dose: 500.0 mg/kg/injection, schedule: Q04DX003 (ip), vehicle: water): 194 % of control
